Measured values: publication PMC2234460 (The Journal of General Physiology, 2002)

Biological target: Shaker K+ channel (Shaker B) (Drosophila melanogaster, UniProt P08510, DEL6-46/F425G/K253C/T449F)
Test: two-electrode voltage clamp in Xenopus oocytes
Assay type: cell-based

Work on `CC[N+](CC)(CC)CC` [TEA] yielded a Kd of 200 µM.
